This is an account of results in US20240366539A1, “METHODS FOR TREATING AUTISM SPECTRUM DISORDERS” (INSTITUT NATIONAL DE LA SANTÉ ET DE LA RECHERCHE MÉDICALE, priority 2021, published 2024).

In test [1] the target is T1, rat mGlu4 receptor (Rattus norvegicus, UniProt P31423).
T1 construct: expressed in transfected cells
Description: IP1 accumulation assay, mGlu4 signaling under glutamate stimulation. Type of test: cell-based.
Description: Human embryonic kidney (HEK) 293 cells were transiently transfected with rat mGlu4 receptor by electroporation together with a chimeric Gi/Gq protein to allow phospholipase activation and EAAC1, a glutamate transporter, to avoid influence of extracellular glutamate. […] 96-well plate (Greiner Bio-One) at the density of 100,000 cells per well and for IPOne assay in a PLO-coated black 96-well plate (Greiner Bio-One) at the density of 50,000 cells per well. Cells were cultured in DMEM (Gibco™, Life Technologies), supplemented with 10% fetal bovine serum. Medium was changed by GlutaMAX (Gibco™, Life Technologies) to reduce extracellular glutamate concentration 3 h before experiment. […]
IP1 accumulation assay: Inositol monophosphate accumulation was determined using the IP-One HTRF (Homogenous Time Resolved Fluorescence) kit (Cisbio Bioassays, Perkin Elmer, Codolet, France) according to the manufacturer's recommendations (72). […]

The subject of test [2] is Oprm1^−/− mice. Description: Marble-burying. Type of test: in vivo, mouse. Here is the method: Mice were treated with vehicle (NaCl 0.9%; ip, 10 or 20 ml/kg), NaBr (Sigma-Aldrich, Saint-Quentin Fallavier, France) administered either chronically (once a day, 10, 30, 70, 125, 250 and 500 mg/kg; i.p. or per os, in a volume of 20 ml/kg—except for combination with VU0155041: […]) or acutely (250 mg/kg, 20 ml/kg), KBr (Sigma-Aldrich, Saint-Quentin Fallavier, France; 145 mg/kg; i.p., 20 ml/kg), bumetanide (R&D systems, Minneapolis, USA, 0.5 and 2 mg/kg; i.p., 20 ml/kg) or VU0155041 (Cayman Chemicals, Ann Arbor, USA, once a day, i.p., 1 mg/kg, 10 ml/kg). […] When treatment was given chronically, behavioral testing started 8 days after beginning of daily administration. Treatment was maintained for 8 to 18 consecutive days (see timelines in FIGS. 1 and 4), allowing thorough behavioral phenotyping. On testing days, or when treatment was given acutely, drugs (or vehicle) were administered 30 min before behavioral assays.
Marble-burying. Marble burying was used as a measure of perseverative behavior (68). Mice were introduced individually in transparent cages (21×11×17 cm) containing 20 glass marbles (diameter: 1.5 cm) evenly spaced on 4-cm deep fresh sawdust. To prevent escapes, each cage was covered with a filtering lid. Light intensity in the room was set at 40 lux. The animals were removed from the cages after 15 min, and the number of marbles buried more than half in sawdust was quoted.

For test [3], the target named is T1, rat mGlu4 receptor. Description: Calcium mobilization assay, mGlu4 signaling under glutamate stimulation. Type of test: cell-based. On the procedure: Human embryonic kidney (HEK) 293 cells were transiently transfected with rat mGlu4 receptor by electroporation together with a chimeric Gi/Gq protein to allow phospholipase activation and EAAC1, a glutamate transporter, to avoid influence of extracellular glutamate. For calcium mobilization, cells were seeded in a PLO-coated, black-walled, clear-bottomed. 96-well plate (Greiner Bio-One) at the density of 100,000 cells per well and for IPOne assay in a PLO-coated black 96-well plate (Greiner Bio-One) at the density of 50,000 cells per well. Cells were cultured in DMEM (Gibco™, Life Technologies), supplemented with 10% fetal bovine serum. Medium was changed by GlutaMAX (Gibco™, Life Technologies) to reduce extracellular glutamate concentration 3 h before experiment.
Chloride and bromide ion concentrations in the buffers used for in vitro experiments were chosen for best matching physiological conditions. It was previously shown that the total amount of halogen (chloride and bromide ions) in the cerebrospinal fluid and serum can reach 120-130 mM (69, 70) and that bromide is able to substitute up to 30% of chloride concentration (71), leading to a theoretical concentration of 91 mM chloride and 36 mM bromide. We thus chose the dose of 100 mM chloride as physiological control (complemented with gluconate NaC6H11O7 to maintain equivalent osmolarity between buffers (56)), and added or not 50 mM chloride or bromide to assess their effects in vitro. Chemicals were purchased from Sigma-Aldrich (Merck, L'Isle D'Abeau Chesnes, France). The pH of all buffers was adjusted to 7.4 before experiments. […]
Calcium mobilization assay: 24 h after transfection, cells were loaded with 1 μM calcium-sensitive fluorescent dye (Fluo-4 AM; Invitrogen, Life Technologies) diluted in fresh C1^− buffer (154.6 mM) for 1 h at 37° C. and 5% CO2. […] Ca^2+ release was determined using μCell FDSS (Hamamatsu Photonics). Fluoresence was recorded for 60 s at 480 nm excitation and 540 nm emission after 20 s record of baseline.
Data were analyzed using Prism 6 software (GraphPad Software, San Diego, CA, USA). […] Statistical differences between pEC50, ΔpEC50 and Emax were determined using a one-way analysis of variance followed by Tukey's post-test.
We measured mGlu4 signaling under glutamate stimulation in HEK293T cells transiently expressing mGlu4 receptors and Gαqi9, a Gi/Gq chimeric G-protein (57) that allows mGlu4 to activate the phosphoinositide pathway. Receptor activation was then evaluated by measuring intracellular Ca^2+ release or inositol monophosphate (IP1, FIG. 5A). […]

Each structure is given as a SMILES string.

T1 sequence (P31423 33-912): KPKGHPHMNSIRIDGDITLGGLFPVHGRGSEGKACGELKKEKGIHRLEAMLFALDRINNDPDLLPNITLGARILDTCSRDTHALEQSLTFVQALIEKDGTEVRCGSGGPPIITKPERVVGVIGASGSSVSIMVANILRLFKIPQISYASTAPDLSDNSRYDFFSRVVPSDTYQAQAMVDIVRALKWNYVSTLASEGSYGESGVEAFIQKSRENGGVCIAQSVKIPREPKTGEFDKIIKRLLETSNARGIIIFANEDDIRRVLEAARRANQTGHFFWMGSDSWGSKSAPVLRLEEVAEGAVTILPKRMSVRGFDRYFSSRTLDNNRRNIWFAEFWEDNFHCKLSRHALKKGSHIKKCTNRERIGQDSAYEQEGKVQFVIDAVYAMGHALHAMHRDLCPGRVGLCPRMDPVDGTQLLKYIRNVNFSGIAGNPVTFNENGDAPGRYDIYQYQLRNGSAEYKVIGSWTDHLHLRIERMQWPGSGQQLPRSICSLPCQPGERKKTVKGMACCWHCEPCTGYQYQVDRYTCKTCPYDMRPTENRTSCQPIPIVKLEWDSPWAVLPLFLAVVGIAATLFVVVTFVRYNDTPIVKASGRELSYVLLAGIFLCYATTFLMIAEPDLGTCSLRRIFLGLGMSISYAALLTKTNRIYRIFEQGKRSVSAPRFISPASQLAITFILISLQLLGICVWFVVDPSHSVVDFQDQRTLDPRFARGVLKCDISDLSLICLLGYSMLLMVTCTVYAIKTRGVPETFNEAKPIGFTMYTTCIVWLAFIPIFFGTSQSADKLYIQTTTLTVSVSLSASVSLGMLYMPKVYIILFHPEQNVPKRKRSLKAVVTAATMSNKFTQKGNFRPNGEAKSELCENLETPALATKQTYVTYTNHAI

In the case of `[Br-].[Na+]` [NaBr, sodium bromide], the “increase in glutamate efficacy (Emax, maximal IP1 production)” value in test [1] (HEK293 cells, mGlu4 + Gαqi9, bromide) is on record as 60±10%. In addition, the “ΔpEC50 of glutamate between physiological Cl− concentration and after addition of Br−” value in test [1] (addition of Br− (so in the source)) was found to be 0.42±0.03. For the same compound, in test [2] (Oprm1−/− mice, chronic NaBr 10-500 mg/kg or bumetanide 0.5 and 2 mg/kg), the excessive marble burying result is listed as “did not suppressed excessive burying in mutant mice”. For the same compound, in test [2] (both mouse lines, chronic NaBr), the “number of buried marbles, global treatment effect” value was “globally increased burying”. Moreover, the “increase in glutamate pEC50” value in test [3] (HEK293 cells, mGlu4 + Gαqi9, addition of 50 mM bromide versus physiological chloride (100 mM Cl− + 50 mM gluconate)) is given as 0.73±0.05 log. In addition, in test [3] (HEK293 cells, mGlu4 + Gαqi9, compared with +50 mM Cl−), the “ΔpEC50 of glutamate, bromide versus equivalent concentration of chloride” value was determined as 0.27±0.04. In test [3] (HEK293 cells, mGlu4 + Gαqi9, glutamate, bromide versus physiological chloride), the “rise in maximal mGlu4-triggered calcium release (Emax)” value was 65±9%. Also, in test [3] (calcium mobilization assay, 100 mM Cl− + 50 mM Br−, broader effects than chloride ions on pEC50 and Emax), the “modulation of mGlu4 (PAM behaviour)” value is “behave as PAM of mGlu4”.
